Measurements as given in patent US5219998A, “Yeast-derived epidermal growth factor” (priority 1991, dated 1993).

Legend:
[1] = target: human EGF receptor (Homo sapiens, UniProt P00533); assay: Binding to EGF receptor of A431 cells (125I-mEGF competition); conditions: read-out: binding constant (KD), same experiment
[2] = system: A431 cells; assay: A431 cellular respiration assay (Clark oxygen electrode); format: cell-based, human
Experimental: In preparing to carry out the titration the results of which are shown in FIG. 2, 10 cm dishes of A431 cells were washed twice and incubated in 5 ml of DME containing 0.1% bovine serum albumin for 1 hour in a CO2 incubator. The cells were collected by trypsinization and resuspended at 2-3×10^6 cells per ml in DME containing 0.1% bovine serum albumin. One ml of the cell suspension was transferred to a glass tube that as maintained at 37° C. with circulating water. The cells were allowed to equilibrate at temperature for 5 minutes, and a Clark oxygen electrode was inserted into the vessel. Potentiometric readings were continuously taken from the electrode using a YSI oxygraph that was attached to a recorder. […] Respiration was allowed to continue until an accurate rate could be observed on the recorder. The rates of respiration were converted to microliters of oxygen per hour per 2×10^6 cells.
Similarly, the yEGF fractions were titered by measuring their immediate effect on the consumption of oxygen by A431 cells.
The Experimental Over Control (EXP/CON) is the rate of respiration observed with yEGF(Fraction I) divided by the basal respiration rate for that sample.

[3] = system: anti-mEGF antibody; assay: Anti-murine EGF Elisa titration; format: binding, goat; conditions: Elisa absorbance; significant at <0.1; standard error 0.019
Experimental: One ml of a 100 mg/ml sample of a yeast extract yEGF(Fraction I) was diluted to 10% with trichloroacetic acid (Fisher Scientific no. A322-100) and allowed to stand for 30 minutes on ice. Precipitated material was collected on a centrifuge at 10,000×g for 10 minutes, and washed twice with 95% ethanol. The insoluble material was dissolved in 1 ml of water and dispersed in a 96 well plate by serial dilutions. Unbound antigen was removed after 3 hours at 37° C. and the plate was incubated with monospecific anti-mEGF antibody overnight at 4° C. Excess antibody was removed by washing the plates and a second antibody conjugated to alkaline phosphatase was added to each well. After 3 hours at 37° C., the excess second antibody was removed and the amount of alkaline phosphatase per well was determined. The Elisa test was dependent on the amount of y-EGF present. In preparation of the materials for the titration shown in the graph of FIG. 6, one hundred microliters of PBS was added to each well of a 96 well microtiter plate. Twenty five microliters of 10 mg/ml yEGF was added to the second well of each row. After mixing, 25 microliters was transferred to the third well in the row. The process was repeated until all the wells had dilutions of yEGF. The antigen was allowed to bind at 37° C. for 3 hours and the plate was washed 3 times with PBS containing 0.05% Tween-20(TPBS). […]

[4] = system: A431 cells; assay: Relative stability at 55° C. measured by stimulation of A431 cellular respiration; format: cell-based, human; conditions: 100 ng of mEGF
Experimental: Referring to FIG. 4, a graph is shown summarizing the results obtained for yEGF(Fraction I) and mEGF.
In preparation for the titration the results of which are shown in FIG. 4, twenty microliter samples of either 100 ng of mEGF or 500 ug of yEGF(Fraction I) were incubated for various times at 55° C. The samples were removed and assayed for their ability to stimulate A431 cell respiration. The procedures for measuring respiration were the same as those which are summarized in relationship to the work leading to FIG. 2.

## mEGF: pure murine EGF (Collaborative Research no 40001)
[1]
  Kd: 2.42 nM
[2]; 6.5 ug/ml a-mEGF
  % Stimulation of A431 respiration: 1.5%
[2]; 10 ug/ml murine IGG
  % Stimulation of A431 respiration: 91.8%
[2]; 0.1mM DTT
  % Stimulation of A431 respiration: 44.8%
[2]; DTT
  effect of Dithiotrietol (DTT) on activity: enhanced
[2]; Z = respiration ratio to control, concentration in ug/ml, intercept 1.03, 98% confidence
  slope of regression Z=1.512 ug/ml EGF+1.03: 1.512
[2]; boiled
  activity after boiling: denatured
[2]; no pretreatment, 0.5 ug/ml mEGF or 1.0 mg/ml yEGF (Fraction I)
  % Stimulation of A431 respiration: 17.8%
[2]; pretreatment 30 min 2 ug/ml ProK
  % Stimulation of A431 respiration: 1.0%
[2]; pretreatment 30 min 2 ug/ml RNase A
  % Stimulation of A431 respiration: 17.6%
[2]; pretreatment 30 min 2ug/ml trypsin
  % Stimulation of A431 respiration: 1%
[2]; pretreatment 30 min 10 ug/ml DNasel
  % Stimulation of A431 respiration: 18.2%
[2]; pretreatment Boiling
  % Stimulation of A431 respiration: 2.1%
[3]
  regression coefficient: one ug equals 0.0518(ABS)--0.0223: 0.0518
[4]
  time to loss of ability to stimulate respiration: ≤ 10 min
